We go through 73 compounds from publication PMC12040169 (PLOS Biology, 2025).

The series can be described thus: in vitro. The conditions noted are these: human, hela cells, % viability.
Usually viability stands for a read-out of living cells in per cent, often relative to untreated cells. For `O=c1[nH]c(=O)c2cc(S(=O)(=O)Nc3ccccc3-c3ccccc3)ccc2[nH]1` [CBK286374], the viability at 28.5 h, 10 µM is 102%.
Take `CC1CCCN(c2ccc(NS(=O)(=O)c3ccc4[nH]c(=O)[nH]c(=O)c4c3)cc2)C1` (stereo not shown) [CBK286376]: the viability at 28.5 h, 10 µM came out at 97.5%.
With `O=c1[nH]c(=O)c2cc(S(=O)(=O)N3CCN(c4ccccn4)CC3)ccc2[nH]1` [CBK286379] the figure was 112%.
As for `O=c1[nH]c(=O)c2cc(S(=O)(=O)N3CCCC(c4ccccc4)C3)ccc2[nH]1` (stereo not shown) [CBK286381], the viability at 28.5 h, 10 µM is 106%.
On to `O=c1[nH]c(=O)c2cc(S(=O)(=O)N3CCC(c4ccccc4)C3)ccc2[nH]1` (stereo not shown) [CBK286382], for which the viability at 28.5 h, 10 µM stood at 105%.
The value for `O=c1[nH]c(=O)c2cc(S(=O)(=O)Nc3ccc(Cn4ccnc4)cc3)ccc2[nH]1` [CBK286383] was 105%; that for `O=c1[nH]c(=O)c2cc(S(=O)(=O)NCC3CCN(Cc4ccccc4)C3)ccc2[nH]1` (stereo not shown) [CBK286384] was 90%; that for `O=c1[nH]c(=O)c2cc(S(=O)(=O)Nc3ccc(Oc4cccnc4)cc3)ccc2[nH]1` [CBK286386] was 99.2%.
With `O=c1[nH]c(=O)c2cc(S(=O)(=O)NCC3(c4ccccc4)CCCC3)ccc2[nH]1` [CBK286387], the viability at 28.5 h, 10 µM is 112%.
`O=c1[nH]c(=O)c2cc(S(=O)(=O)Nc3cccc(CCc4ccccn4)c3)ccc2[nH]1` [CBK286389]: the viability at 28.5 h, 10 µM came to 97.9%.
Take `CC(C)C1c2cccn2CCN1S(=O)(=O)c1ccc2[nH]c(=O)[nH]c(=O)c2c1` (stereo not shown) [CBK286391]: the viability at 28.5 h, 10 µM stood at 99.6%.
With `COc1ccc2c(c1)OC1(CCN(C(=O)C3CCCC3)CC1)CC2O` (stereo not shown) [CBK286400], the viability at 28.5 h, 10 µM is 84.4%.
In the case of `Cc1cc(C2CCCCCN2S(=O)(=O)c2ccc3[nH]c(=O)[nH]c(=O)c3c2)on1` (stereo not shown) [CBK286405], the viability at 28.5 h, 10 µM is 93.6%.
For the compound `Cn1cc(C2CCCCCN2S(=O)(=O)c2ccc3[nH]c(=O)[nH]c(=O)c3c2)cn1` (stereo not shown) [CBK286406], the viability at 28.5 h, 10 µM stood at 103%.
As to `Cn1ccc(C2CCCCCN2S(=O)(=O)c2ccc3[nH]c(=O)[nH]c(=O)c3c2)n1` (stereo not shown) [CBK286407], the viability at 28.5 h, 10 µM was found to be 71.1%.
For the compound `COc1ccc2[nH]c(=O)c(CNc3ccc4c(c3)-c3ccccc3S(=O)(=O)N4)cc2c1` [CBK286409], the viability at 28.5 h, 10 µM was determined as 84.2%.
`c1coc(CNc2ncc(-c3ccc4c(c3)OCO4)c(-c3cccs3)n2)c1` [CBK286414]: the viability at 28.5 h, 10 µM worked out at 93.9%.
As to `O=C(NCc1cccs1)C1(Cc2ccccc2-c2ccc(F)c(F)c2)CCOCC1` [CBK286417], the viability at 28.5 h, 10 µM was determined as 93.2%.
As for `COc1ccccc1CN1CCC(Cc2ccccc2-c2ccc(C)cc2C)(C(=O)O)CC1` [CBK286419], the viability at 28.5 h, 10 µM worked out at 88.4%.
On to `Cc1nc2cc(-c3nccn3C)nn2c(N2CCN(c3ccc(O)cc3)CC2)c1C` [CBK286427], for which the viability at 28.5 h, 10 µM stood at 92.8%.
As to `CC(=O)NC1(c2ccccc2F)CCN(c2ncc(-c3ccco3)c(-c3ccco3)n2)CC1` [CBK286428], the viability at 28.5 h, 10 µM is 95.3%.
Consider `O=C(NCc1ccc(CO)cc1)[C@@H]1CN(Cc2ccccc2)C[C@H]1C(=O)c1ccc(F)cc1` [CBK286430], for which the viability at 28.5 h, 10 µM was 97.8%.
With `CC(=O)N1CCc2sccc2C1c1ccccc1NCc1ccoc1` (stereo not shown) [CBK286432] the figure was 91.6%; with `CC(=O)N1CCc2sccc2C1c1ccc(NC(=O)c2ccc(F)cc2)cc1` (stereo not shown) [CBK286434], 89%.
For `COCC(=O)N1CCc2sccc2C1c1ccc(NC(=O)c2ccc(F)cc2)cc1` (stereo not shown) [CBK286435], the viability at 28.5 h, 10 µM was determined as 93.8%.
Consider `O=C(c1ccsc1)N1CCC2(CC1)CN(Cc1ccccc1)CC(c1ccccc1)O2` (stereo not shown) [CBK286438], for which the viability at 28.5 h, 10 µM worked out at 94.4%.
As to `Cc1nccc(-c2cccc(NC3CCN(c4ccc5c(c4)OCCO5)CC3)c2)n1` [CBK286439], the viability at 28.5 h, 10 µM worked out at 97.1%.
As for `Cc1cccc(CN2CCN(c3ccccc3C(O)c3nccn3C)CC2)c1` (stereo not shown) [CBK286441], the viability at 28.5 h, 10 µM is 88.5%.
Turning to `COc1cccc(CNc2ccc(C3c4ccsc4CCN3C(C)=O)cc2)c1` (stereo not shown) [CBK286443], the viability at 28.5 h, 10 µM was found to be 109%.
With `COCC(=O)N1CCc2sccc2C1c1ccc(NCc2ccc(F)cc2)cc1` (stereo not shown) [CBK286445] the figure was 89.7%; with `COCC(=O)N1CCc2sccc2C1c1ccc(NCc2ccc(C)o2)cc1` (stereo not shown) [CBK286447], 96.3%.
`CC(O)CN(Cc1ccc(-c2ccccc2)cc1)Cc1ccc2c(c1)OCO2` (stereo not shown) [CBK286450]: the viability at 28.5 h, 10 µM is 94.1%.
Turning to `CCOc1ccc(CNc2ccc(C3c4ccsc4CCN3C(C)=O)cc2)cc1` (stereo not shown) [CBK286451], the viability at 28.5 h, 10 µM was 96.3%.
Consider `CCOc1ccc(CNc2ccc(C3c4ccsc4CCN3C(=O)COC)cc2)cc1` (stereo not shown) [CBK286453], for which the viability at 28.5 h, 10 µM is 85.3%.
On to `CC1Cc2cc(C(O)CN3CCC4CCCCC4C3)ccc2N1S(C)(=O)=O` (stereo not shown) [CBK286456], for which the viability at 28.5 h, 10 µM is 116%.
As to `CC(=O)N1CCCc2cc(C(O)CN3CCN(c4cccc(C)c4)CC3)ccc21` (stereo not shown) [CBK286457], the viability at 28.5 h, 10 µM stood at 93.1%.
The value for `COCC(=O)N1CCc2sccc2C1c1ccc(NCc2ccc(OC)cc2)cc1` (stereo not shown) [CBK286458] was 85.1%.
Turning to `CCOc1ccccc1CNc1ccc(C2c3ccsc3CCN2C(C)=O)cc1` (stereo not shown) [CBK286459], the viability at 28.5 h, 10 µM was 104%.
As for `Nc1ncc(CN(Cc2ccco2)CC(O)Cn2c3ccccc3c3ccccc32)cn1` (stereo not shown) [CBK286462], the viability at 28.5 h, 10 µM was 88.6%.
On to `O=c1[nH]c2c(cc1CNc1cccc(O)c1)c(-c1cccc(F)c1)nn2-c1ccccc1` [CBK286463], for which the viability at 28.5 h, 10 µM was 93%.
As to `COc1ccc(C(=O)Nc2ccc(C3c4ccsc4CCN3C(C)=O)cc2)cc1` (stereo not shown) [CBK286465], the viability at 28.5 h, 10 µM was found to be 85%.
With `COCC(=O)N1CCc2sccc2C1c1ccc(NC(=O)c2cccc(F)c2)cc1` (stereo not shown) [CBK286468] the figure was 102%; with `COCC(=O)N1CCc2sccc2C1c1ccc(NC(=O)c2ccccc2F)cc1` (stereo not shown) [CBK286469], 87.5%; with `COc1ccc(-c2cccc(CN(Cc3ccc4c(c3)OCO4)CC(C)O)c2)cc1` (stereo not shown) [CBK286472], 107%.
Consider `CCOc1cc2c(cc1CN(Cc1ccc3c(c1)OCO3)CC(C)O)CCC2` (stereo not shown) [CBK286474], for which the viability at 28.5 h, 10 µM amounted to 87.2%.
Take `CCC(=O)N1CCCc2cc(C(O)CN3CCN(c4cccc(OC)c4)CC3)ccc21` (stereo not shown) [CBK286476]: the viability at 28.5 h, 10 µM was 114%.
The value for `COc1ccc([C@H]2CN(Cc3ccccc3)C[C@@H]2NC(=O)CCc2ccco2)cc1` [CBK286477] was 87.6%.
As for `COc1ccc([C@H]2CN(Cc3ccccc3)C[C@@H]2NC(=O)c2ccco2)cc1OC` [CBK286478], the viability at 28.5 h, 10 µM came to 88.4%.
On to `COc1ccc(OC)c([C@@H]2CN(Cc3ccccc3)C[C@H]2NC(=O)c2ccco2)c1` [CBK286479], for which the viability at 28.5 h, 10 µM worked out at 96.3%.
Turning to `CCC(=O)N1CCCc2cc(C(O)CN3CCN(c4ccc(F)cc4)CC3)ccc21` (stereo not shown) [CBK286480], the viability at 28.5 h, 10 µM stood at 95.3%.
In the case of `CC(=O)N1CCCc2cc(C(O)CN3CCC(O)(c4ccc(F)cc4)CC3)ccc21` (stereo not shown) [CBK286481], the viability at 28.5 h, 10 µM worked out at 88.1%.
For the compound `COc1ccccc1C1(O)CCN(CC(O)c2ccc3c(c2)OCCO3)CC1` (stereo not shown) [CBK286482], the viability at 28.5 h, 10 µM is 90.1%.
With `COc1ccc(CN(Cc2ccccc2OC)[C@@H]2COC[C@H]2c2ccc(F)cc2)cc1` [CBK286484] the figure was 105%; with `COc1ccc(CN(Cc2ccsc2)[C@@H]2COC[C@H]2c2ccc(F)cc2)cc1` [CBK286485], 112%; with `CN(Cc1ccccc1)C(=O)c1c[nH]nc1C1CCCN(CC2CCCCC2)C1` (stereo not shown) [CBK286489], 94.4%.
In the case of `CN(Cc1ccccc1)C(=O)c1c[nH]nc1C1CCCN(Cc2cccc(Cl)c2)C1` (stereo not shown) [CBK286490], the viability at 28.5 h, 10 µM was 91%.
For the compound `CN(C(=O)c1c[nH]nc1C1CCCN(Cc2cc3ccccc3o2)C1)C1CCCCC1` (stereo not shown) [CBK286492], the viability at 28.5 h, 10 µM amounted to 102%.
The value for `O=C(CC1CCN(Cc2cccc(C(F)(F)F)c2)CC1)N(Cc1ccccn1)C1CC1` [CBK286494] was 101%.
For the compound `Cc1cc(C)nc(Nc2cccc(C3CCCN3C(=O)CCOc3ccccc3C)n2)n1` (stereo not shown) [CBK286496], the viability at 28.5 h, 10 µM worked out at 90.7%.
Turning to `Cc1nc(C2(O)CCCN(C3CCCCC3)CC2)sc1COc1ccc(F)c(F)c1` (stereo not shown) [CBK286499], the viability at 28.5 h, 10 µM was 86.4%.
As to `COc1ccc(CC(=O)N2CCC(c3cccc(Cc4cccc(F)c4)n3)CC2)cc1` [CBK286504], the viability at 28.5 h, 10 µM is 100%.
As for `O=C(CCc1ccc(F)cc1)N1CCCC(c2cccc(Cc3ccccc3F)n2)C1` (stereo not shown) [CBK286512], the viability at 28.5 h, 10 µM is 91.2%.
Turning to `COc1ccccc1-c1ccc(CC2(C(=O)NC3CCCCC3)CCOCC2)cc1` [CBK286515], the viability at 28.5 h, 10 µM was found to be 98.4%.
Consider `COc1ccccc1-c1ccc(CC2(C(=O)NCC3CCCCC3)CCOCC2)cc1` [CBK286519], for which the viability at 28.5 h, 10 µM is 98.5%.
Turning to `COc1ccccc1-c1ccc(CC2(C(=O)NCCc3ccc(F)cc3)CCOCC2)cc1` [CBK286520], the viability at 28.5 h, 10 µM is 94.4%.
The value for `CCC(CO)NC(=O)C1(Cc2ccc(-c3cc(C)cc(C)c3)cc2)CCOCC1` (stereo not shown) [CBK286522] was 90.8%.
With `Cc1cc(C)cc(-c2ccc(CC3(C(=O)NCC4CCCOC4)CCOCC3)cc2)c1` (stereo not shown) [CBK286524], the viability at 28.5 h, 10 µM is 96.5%.
With `CC(C)C(CO)NC(=O)C1(Cc2ccc(-c3ccc(F)c(F)c3)cc2)CCOCC1` (stereo not shown) [CBK286525] the figure was 87.7%.
Consider `COc1ccccc1-c1ccc(NC(=O)CCc2ccc3c(c2)n(C)c(=O)n3C)cc1` [CBK286527], for which the viability at 28.5 h, 10 µM was 93.1%.
Consider `Cc1ccc(C2CCCN2C(=O)c2cccn(CC(=O)Nc3ccc(F)cc3)c2=O)cc1C` (stereo not shown) [CBK286528], for which the viability at 28.5 h, 10 µM was determined as 90.1%.
As to `O=C(Cc1ccccc1)N(Cc1ccco1)C1CCN(c2ccc3c(c2)OCCO3)CC1` [CBK286529], the viability at 28.5 h, 10 µM amounted to 106%.
Take `N=c1n(CC(=O)O)c2ccccc2n1Cc1ccccc1` [CBK286531]: the viability at 28.5 h, 10 µM is 108%.
Turning to `CC(C)C(C(=O)O)N1C(=O)C2C3C=CC(C3)C2C1=O` (stereo not shown) [CBK286535], the viability at 28.5 h, 10 µM is 84%.
